Data published in US9957265B2, “N-(2-cyano heterocyclyl) pyrazolo pyridones as janus kinase inhibitors” (Merck Sharp & Dohme Corp., priority 2013, dated 2018).
Read-outs that look alike come from different tables or passages of the source.

Experiments:
[1] = biological target: JAK1 (Homo sapiens (Human), UniProt P23458); experiment: Jak Biochemical HTRF Assay (JAK1); details: recombinant GST-tagged catalytic domain, [ATP] 31.8 μM, unit not given (compound concentrations tested given in nM)
Description: Jak Biochemical HTRF Assay Protocol
Subsequent reagent additions employed an Agilent Bravo.

[2] = biological target: JAK2 (Homo sapiens (Human), UniProt O60674); experiment: Jak Biochemical HTRF Assay (JAK2)
[3] = JAK2 IC50, recombinant GST-tagged catalytic domain, [ATP] 8.5 μM, unit not given (compound concentrations tested given in nM)
[4] = read-out: JAK2 IC50, recombinant GST-tagged catalytic domain, [ATP] 8.5 μM, unit not given (compound concentrations tested given in nM)

JAK2, sequence (O60674 849-1124): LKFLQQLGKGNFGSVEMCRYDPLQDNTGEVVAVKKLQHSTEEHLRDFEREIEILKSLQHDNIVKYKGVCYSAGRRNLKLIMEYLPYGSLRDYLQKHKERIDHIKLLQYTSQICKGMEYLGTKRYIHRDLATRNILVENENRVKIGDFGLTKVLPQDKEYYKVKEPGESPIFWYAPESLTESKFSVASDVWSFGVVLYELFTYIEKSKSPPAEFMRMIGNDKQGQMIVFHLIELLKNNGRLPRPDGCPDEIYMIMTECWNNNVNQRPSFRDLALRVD
JAK1, sequence (P23458 875-1153): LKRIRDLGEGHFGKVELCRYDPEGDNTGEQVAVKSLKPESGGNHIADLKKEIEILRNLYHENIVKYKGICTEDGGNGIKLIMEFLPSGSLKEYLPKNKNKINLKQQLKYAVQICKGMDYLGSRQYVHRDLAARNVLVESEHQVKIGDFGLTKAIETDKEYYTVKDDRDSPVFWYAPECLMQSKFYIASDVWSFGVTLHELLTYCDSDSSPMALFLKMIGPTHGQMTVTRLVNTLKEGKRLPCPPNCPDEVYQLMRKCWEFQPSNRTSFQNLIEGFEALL

Row | IC50 [1] | IC50 [2, 3] | IC50 [2, 4] | SMILES
1 | 0.08 nM | 0.15 nM | – | N#C[C@H]1CCOCC1n1nc(Nc2ccc(C(O)(c3ccncc3)C(F)(F)F)cc2)c2c(=O)[nH]ccc21 (single isomer, unassigned) [Example 1-94, (3R,4S)-3-(4-oxo-3-((4-((S or R)-2,2,2-trifluoro-1-hydroxy-1-(pyridin-4-yl)ethyl)phenyl)amino)-4,5-dihydro-1H-pyrazolo[4,3-c]pyridin-1-yl)tetrahydro-2H-pyran-4-carbonitrile]
2 | 0.24 nM | – | 0.82 nM | C[C@H]1CN(S(=O)(=O)c2ccc(Nc3nn([C@H]4COCC[C@@H]4C#N)c4cc[nH]c(=O)c34)cc2)C[C@H](C)O1 (stereo in doubt) [Example 1-76, (3R,4S)-3-{3-[(4-{[(trans)-2,6-dimethylmorpholin-4-yl]sulfonyl}phenyl)amino]-4-oxo-4,5-dihydro-1H-pyrazolo[4,3-c]pyridin-1-yl}tetrahydro-2H-pyran-4-carbonitrile]
3 | 1.64 nM | – | 7.44 nM | CS(=O)(=O)c1cc(Nc2nn(C3COCC[C@@H]3C#N)c3cc[nH]c(=O)c23)ccc1Cl (stereo partly drawn) [Example 3-1, (3R,4S)-3-(3-((4-chloro-3-(methylsulfonyl)phenyl)amino)-4-oxo-4,5-dihydro-1H-pyrazolo[4,3-t]pyridin-1-yl)tetrahydro-2H-pyran-4-carbonitrile]
4 | 0.14 nM | 0.6 nM | – | CC(C)(C)OC(=O)CNC(c1ccc(Nc2nn([C@H]3COCC[C@@H]3C#N)c3cc[nH]c(=O)c23)cc1)C(F)(F)F (single isomer, unassigned) [Example 1-41, tert-butyl N-{(1S or 1R)-1-[4-({1-[(3R,4S)-4-cyanotetrahydro-2H-pyran-3-yl]-4-oxo-4,5-dihydro-1H-pyrazolo[4,3-c]pyridin-3-yl}amino)phenyl]-2,2,2-trifluoroethyl}glycinate]
5 | 0.08 nM | 0.12 nM | – | CCNC(c1ccc(Nc2nn([C@H]3COCC[C@@H]3C#N)c3cc[nH]c(=O)c23)cc1)C(F)(F)F (single isomer, unassigned) [Example 1-55, (3R,4S)-3-[3-({4-[(1S or 1R)-1-(ethylamino)-2,2,2-trifluoroethyl]phenyl}amino)-4-oxo-4,5-dihydro-1H-pyrazolo[4,3-c]pyridin-1-yl] tetrahydro-2H-pyran-4-carbonitrile]
6 | 0.22 nM | – | 0.7 nM | CC1(C)CN(S(=O)(=O)c2ccc(Nc3nn([C@H]4COCC[C@@H]4C#N)c4cc[nH]c(=O)c34)cc2)CCO1 [Example 1-71, (3R,4S)-3-[3-({4-[(2,2-dimethylmorpholin-4-yl)sulfonyl]phenyl}amino)-4-oxo-4,5-dihydro-1H-pyrazolo[4,3-c]pyridin-1-yl]tetrahydro-2H-pyran-4-carbonitrile]
7 | 0.05 nM | 0.08 nM | – | CN(C)C(c1ccc(Nc2nn([C@H]3COCC[C@@H]3C#N)c3cc[nH]c(=O)c23)cc1)C(F)(F)F (single isomer, unassigned) [Example 1-59, (3R,4S)-3-[3-({4-[(1S or 1R)-1-(dimethylamino)-2,2,2-trifluoroethyl]phenyl}amino)-4-oxo-4,5-dihydro-1H-pyrazolo[4,3-c]pyridin-1-yl]tetrahydro-2H-pyran-4-carbonitrile]
8 | 0.07 nM | 0.15 nM | – | N#C[C@H]1CCOC[C@@H]1n1nc(Nc2ccc(C(NC3CC3)C(F)(F)F)cc2)c2c(=O)[nH]ccc21 (single isomer, unassigned) [Example 1-80, (3R,4S)-3-[3-({4-[(1S or 1R)-1-(cyclopropylamino)-2,2,2-trifluoroethyl]phenyl}amino)-4-oxo-4,5-dihydro-1H-pyrazolo[4,3-c]pyridin-1-yl]tetrahydro-2H-pyran-4-carbonitrile]
9 | 0.12 nM | 0.18 nM | – | CC(c1ccc(Nc2nn([C@H]3COCC[C@@H]3C#N)c3cc[nH]c(=O)c23)cc1)n1nccn1 (single isomer, unassigned) [Example 1-44, (3R,4S)-3-[4-oxo-3-({4-[(1S or 1R)-1-(2H-1,2,3-triazol-2-yl)ethyl]phenyl}amino)-4,5-dihydro-1H-pyrazolo[4,3-c]pyridin-1-yl]tetrahydro-2H-pyran-4-carbonitrile]
10 | 0.22 nM | 0.33 nM | – | CN1CCN(C(c2ccc(Nc3nn([C@H]4COCC[C@@H]4C#N)c4cc[nH]c(=O)c34)cc2)C(F)(F)F)CC1 (single isomer, unassigned) [Example 1-37, (3R,4S)-3-[4-oxo-3-({4-[(1S or 1R)-2,2,2-trifluoro-1-(4-methylpiperazin-1-yl)ethyl]phenyl}amino)-4,5-dihydro-1H-pyrazolo[4,3-c]pyridin-1-yl]tetrahydro-2H-pyran-4-carbonitrile]
11 | 0.08 nM | – | 0.21 nM | CC(C)(C)S(=O)(=O)c1ccc(Nc2nn([C@H]3COCC[C@@H]3C#N)c3cc[nH]c(=O)c23)cc1 [Example 1-13]
12 | 0.65 nM | 1.73 nM | – | CC1(C)CC1NC(c1ccc(Nc2nn([C@H]3COCC[C@@H]3C#N)c3cc[nH]c(=O)c23)cc1)C(F)(F)F (single isomer, unassigned) [Example 1-48, (3R,4S)-3-{3-[(4S or 4R-{1S or 1R-[(2,2-dimethylcyclopropyl)amino]-2,2,2-trifluoroethyl}phenyl)amino]-4-oxo-4,5-dihydro-1H-pyrazolo[4,3-c]pyridin-1-yl}tetrahydro-2H-pyran-4-carbonitrile]
13 | 0.05 nM | – | 0.35 nM | CS(=O)(=O)c1ccc(Nc2nn([C@H]3COCC[C@@H]3C#N)c3cc[nH]c(=O)c23)cc1 [Example 1-2, (3R,4S)-3-(3-((4-(methylsulfonyl)phenyl)amino)-4-oxo-4,5-dihydro-1H-pyrazolo[4,3-c]pyridin-1-yl)tetrahydro-2H-pyran-4-carbonitrile]
14 | 0.12 nM | – | 0.16 nM | Cc1cc(Nc2nn([C@H]3COCC[C@@H]3C#N)c3cc[nH]c(=O)c23)ccc1C(=O)N1CCC(F)(F)CC1 [Example 1-35, (3R,4S)-3-(3-((4-(4,4-difluoropiperidine-1-carbonyl)-3-methylphenyl)amino)-4-oxo-4,5-dihydro-1H-pyrazolo[4,3-c]pyridin-1-yl)tetrahydro-2H-pyran-4-carbonitrile]
15 | 0.09 nM | – | 0.26 nM | CCC(C)(C)S(=O)(=O)c1ccc(Nc2nn([C@H]3COCC[C@@H]3C#N)c3cc[nH]c(=O)c23)cc1 [Example 1-65, (3R,4S)-3-[3-({4-[(1,1-dimethylpropyl)sulfonyl]phenyl}amino)-4-oxo-4,5-dihydro-1H-pyrazolo[4,3-c]pyridin-1-yl]tetrahydro-2H-pyran-4-carbonitrile]
16 | 0.06 nM | 0.22 nM | – | N#C[C@H]1CCOC[C@@H]1n1nc(Nc2ccc(C(N)C(F)(F)F)cc2)c2c(=O)[nH]ccc21 (single isomer, unassigned) [Example 1-8, (3R,4S)-3-(3-((4-((R or S)-1-amino-2,2,2-trifluoroethyl)phenyl)amino)-4-oxo-4,5-dihydro-1H-pyrazolo[4,3-c]pyridin-1-yl)tetrahydro-2H-pyran-4-carbonitrile]
17 | 0.05 nM | 0.06 nM | – | N#C[C@H]1CCOC[C@@H]1n1nc(Nc2ccc(C3(C(F)(F)F)CCCCN3)cc2)c2c(=O)[nH]ccc21 (single isomer, unassigned) [Example 2-7, (3R,4S)-3-[4-oxo-3-({4-[(2S or 2R)-2-(trifluoromethyl)piperidin-2-yl]phenyl}amino)-4,5-dihydro-1H-pyrazolo[4,3-c]pyridin-1-yl] tetrahydro-2H-pyran-4-carbonitrile]
18 | 0.21 nM | 0.24 nM | – | N#C[C@H]1CCOC[C@@H]1n1nc(Nc2ccc(C(N3CCSCC3)C(F)(F)F)cc2)c2c(=O)[nH]ccc21 (single isomer, unassigned) [Example 2-6, (3R,4S)-3-[4-oxo-3-({4-[(1R or 1S)-2,2,2-trifluoro-1-thiomorpholin-4-ylethyl]phenyl}amino)-4,5-dihydro-1H-pyrazolo[4,3-c]pyridin-1-yl]tetrahydro-2H-pyran-4-carbonitrile]
19 | 0.13 nM | 0.19 nM | – | N#C[C@H]1CCOC[C@@H]1n1nc(Nc2ccc(C(NC3CCC3)C(F)(F)F)cc2)c2c(=O)[nH]ccc21 (single isomer, unassigned) [Example 1-92, (3R,4S)-3-[3-({4-[(1S or 1R)-1-(cyclobutylamino)-2,2,2-trifluoroethyl]phenyl}amino)-4-oxo-4,5-dihydro-1H-pyrazolo[4,3-c]pyridin-1-yl]tetrahydro-2H-pyran-4-carbonitrile]
20 | 0.04 nM | – | 0.34 nM | CN1Cc2cc(Nc3nn([C@H]4COCC[C@@H]4C#N)c4cc[nH]c(=O)c34)ccc2S1(=O)=O [Example 1-4, (3R,4S)-3-(3-((2-methyl-1,1-dioxido-2,3-dihydrobenzo[d]isothiazol-5-yl)amino)-4-oxo-4,5-dihydro-1H-pyrazolo[4,3-c]pyridin-1-yl)tetrahydro-2H-pyran-4-carbonitrile]
21 | 0.16 nM | 0.78 nM | – | CC(C)(C)OC(=O)CNC(c1ccc(Nc2nn([C@H]3COCC[C@@H]3C#N)c3cc[nH]c(=O)c23)cc1)C(F)(F)F (single isomer, unassigned) [Example 1-40, tert-butyl N-{[(1R or 1S)-1-[4-({1-[(3R,4S)-4-cyanotetrahydro-2H-pyran-3-yl]-4-oxo-4,5-dihydro-1H-pyrazolo[4,3-c]pyridin-3-yl}amino)phenyl]-2,2,2-trifluoroethyl}glycinate]
22 | 12.4 nM | 14.7 nM | – | CC(C)(C)S(=O)(=O)c1ccc(Nc2nn(C3COCCC[C@H]3C#N)c3cc[nH]c(=O)c23)cc1 (single isomer, unassigned) [Example 1-24, (3R,4R or 3S,4S)-3-(3-{[4-(tert-butylsulfonyl)phenyl]amino}-4-oxo-4,5-dihydro-1H-pyrazolo[4,3-c]pyridin-1-yl)oxepane-4-carbonitrile]
